# Reference: PMC12084349 (Communications Biology, 2025)
# Key:
# [1] = molecular target: Hsp90-NTD (Homo sapiens, UniProt P07900); experiment: [1H, […]] HSQC NMR titration; assay type: binding
# [2] = molecular target: Aha1 (Homo sapiens, UniProt O95433); experiment: ITC; assay type: binding
# Chain of Aha1 (O95433 204-338): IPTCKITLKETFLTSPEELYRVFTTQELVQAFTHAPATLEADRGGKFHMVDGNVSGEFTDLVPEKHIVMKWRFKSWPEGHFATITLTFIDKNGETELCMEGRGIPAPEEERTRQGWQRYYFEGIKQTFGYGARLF
structure (smiles),measurement,setting,value
CCc1oc2ccccc2c1C(=O)c1cc(Br)c(O)c(Br)c1 [Benzbromarone],Kd,[1],15.1 ± 3.86 µM
same,Kd,[2],0.84 ± 0.35 µM
